According to patent US12435026B2, “Solabegron zwitterion and uses thereof” (B3AR THERAPEUTICS, INC., priority 2015, dated 2025):
Blank lines part the entries; values can stand above or below the molecule they belong to.

Columns and labels:
[1] = Solubility among forms of solabegron; assay type: physicochemical
Excerpt: After extensive effort, applicants have newly discovered two crystalline forms of solabegron zwitterion. One form, form I, is an anhydrous crystalline form and is characterized by an x-ray powder diffraction pattern having peaks expressed in degrees 2θ (±2) at 6.2, 12.5; 18.8; 20.6; and 25.2. A second form, form II is a hydrate of isopropanol solvate and is characterized by an x-ray powder diffraction pattern having peaks expressed in degrees 2θ (±2) at 17.6, 18.7, 19.6, 20.1, 20.5, 23.7, and 25.8. (See EXAMPLE 3 and FIGS. 7, 12 and 14). […] After isolation the solabegron crystals can be dissolved and then crystallized to the solabegron HCL salt form, which is currently being investigated clinically. Of equal importance, the pharmaceutical compositions of solabegron zwitterion disclosed herein could be used as the active ingredient clinically, replacing the need for the HCl salt form of solabegron.

[2] = Relative stability of solabegron zwitterion Forms I and II via slurry conditioning in IPA/H2O; assay type: physicochemical; settings: for relative stability of crystal forms: slurry conditioning in IPA/H2O with different ratio (FIG. 10)
Experimental: The relative stability of solabegron zwitterion Forms I and II was evaluated via slurry conditioning of either solabegron zwitterion Form I or a mixture of solabegron zwitterion Forms I and II in IPA/H2O with different ratio, for a) confirmation of relative stability of the two solabegron zwitterion forms, and b) rational process design and control. The table in FIG. 10 lists the testing conditions and results.

[3] = tested on: women with moderate to severe OAB; settings: Ohlstein et al., Eur. Urol. 2012; cited from earlier work

solubility relative to other forms of solabegron [1]: least soluble form of solabegron
Structure (SMILES): O=C(O)c1cccc(-c2cccc(NCCNC[C@H](O)c3cccc(Cl)c3)c2)c1 [Solabegron zwitterion]

Structure (SMILES): O=C(O)c1cccc(-c2cccc(NCCNC[C@H](O)c3cccc(Cl)c3)c2)c1 [solabegron zwitterion Form II]
relative stability of crystal forms [2]: more stable than solabegron zwitterion Form I
relative stability of crystal forms ([2]; listed as form II solabegron zwitterion): more stable than the form I solabegron zwitterion

Structure (SMILES): O=C(O)c1cccc(-c2cccc(NCCNC[C@H](O)c3cccc(Cl)c3)c2)c1 [solabegron zwitterion Form I]
crystal form resulting from slurry conditioning ([2]; starting with Form I alone or a mixture of Forms I and II, IPA/H2O with different ratio (FIG. 10)): Solabegron zwitterion Form II resulted from all tested conditions

Structure (SMILES): O=C(O)c1cccc(-c2cccc(NCCNC[C@H](O)c3cccc(Cl)c3)c2)c1 [solabegron, 3′-[(2-{[(2R)-2-(3-chlorophenyl)-2-hydroxyethyl]amino}ethyl)amino]biphenyl-3-carboxylic acid]
safety and tolerability; adverse events as compared to placebo [3]: safe, well tolerated, and does not demonstrate significant differences in adverse events as compared to placebo
symptoms of OAB [3]: significantly reduced the symptoms of OAB
